Test [1] deals with T1, rat-species vanilloid receptor 1 (VR1/TRPV1) (Rattus norvegicus, UniProt O35433).
T1 construct: endogenous in cells; host or cells: primary cells dissociated from rat dorsal root ganglia (DRG), cultured 2-3 days with NGF
In words: Functional testing on the vanilloid receptor 1, FLIPR Ca2+ influx in rat DRG cells, capsaicin. As to conditions: for Ki: capsaicin (Cap), includes values given in brackets after pAG. Set-up: key to Ki (rat) [nM] Cap: agonist / partial agonist / no effect: AG=agonist; pAG=partial agonist; NE=no effect. The class given is cell-based. The text has this: I. Functional Testing Carried Out on the Vanilloid Receptor 1 (VRI/TRPV1 Receptor)
The agonistic or antagonistic effect of the substances to be tested on the rat-species vanilloid receptor 1 (VR1/TRPV1) can be determined using the following assay. In this assay, the influx of Ca^2+ through the receptor channel is quantified with the aid of a Ca^2+-sensitive dye (type Fluo-4, Molecular Probes Europe BV, Leiden, the Netherlands) in a fluorescent imaging plate reader (FLIPR, Molecular Devices, Sunnyvale, USA).
Complete medium: 50 ml HAMS F12 nutrient mixture (Gibco Invitrogen GmbH, Karlsruhe, Germany) with
10% by volume of FCS (foetal calf serum, Gibco Invitrogen GmbH, Karlsruhe, Germany, heat-inactivated);
2 mM L-glutamine (Sigma, Munich, Germany);
1% by weight of AA solution (antibiotic/antimyotic solution, PAA, Pasching, Austria) and 25 ng/ml NGF medium (2.5 S, Gibco Invitrogen GmbH, Karlsruhe, Germany)
Cell culture plate: Poly-D-lysine-coated, black 96-well plates having a clear base (96-well black/clear plate, BD Biosciences, Heidelberg, Germany) are additionally coated with laminin (Gibco Invitrogen GmbH, Karlsruhe, Germany), the laminin being diluted with PBS (Ca—Mg-free PBS, Gibco Invitrogen GmbH, Karlsruhe, Germany) to a concentration of 100 μg/ml. Aliquots having a laminin concentration of 100 μg/ml are removed and stored at −20° C. The aliquots are diluted with PBS in a ratio of 1:10 to 10 μg/ml of laminin and respectively 50 μL of the solution are pipetted into a recess in the cell culture plate. The cell culture plates are incubated for at least two hours at 37° C., the excess solution is removed by suction and the recesses are each washed twice with PBS. The coated cell culture plates are stored with excess PBS which is not removed until just before the feeding of the cells.
Preparation of the Cells:
The vertebral column is removed from decapitated rats and placed immediately into cold HBSS buffer (Hank's buffered saline solution, Gibco Invitrogen GmbH, Karlsruhe, Germany), i.e. buffer located in an ice bath, mixed with 1% by volume (per cent by volume) of an AA solution (antibiotic/antimyotic solution, PAA, Pasching, Austria). The vertebral column is cut longitudinally and removed together with fasciae from the vertebral canal. Subsequently, the dorsal root ganglia (DRG) are removed and again stored in cold HBSS buffer mixed with 1% by volume of an AA solution. The DRG, from which all blood remnants and spinal nerves have been removed, are transferred in each case to 500 μL of cold type 2 collagenase (PAA, Pasching, Austria) and incubated for 35 minutes at 37° C. After the addition of 2.5% by volume of trypsin (PAA, Pasching, Austria), incubation is continued for 10 minutes at 37° C. After complete incubation, the enzyme solution is carefully pipetted off and 500 μL of complete medium are added to each of the remaining DRG. The DRG are respectively suspended several times, drawn through cannulae No. 1, No. 12 and No. 16 using a syringe and transferred to a 50 ml Falcon tube which is filled up to 15 ml with complete medium. The contents of each Falcon tube are respectively filtered through a 70 μm Falcon filter element and centrifuged for 10 minutes at 1,200 rpm and RT. The resulting pellet is respectively taken up in 250 μL of complete medium and the cell count is determined.
The number of cells in the suspension is set to 3×10^5 per ml and 150 μL of this suspension are in each case introduced into a recess in the cell culture plates coated as described hereinbefore. In the incubator the plates are left for two to three days at 37° C., 5% by volume of CO2 and 95% relative humidity. […]

For test [2], the target named is T2, hVR1 (Homo sapiens, UniProt Q8NER1).
T2 construct: expressed in transfected cells; host or cells: CHO K1 cells (ECACC), stably transfected
T2 sequence (Q8NER1 whole entry): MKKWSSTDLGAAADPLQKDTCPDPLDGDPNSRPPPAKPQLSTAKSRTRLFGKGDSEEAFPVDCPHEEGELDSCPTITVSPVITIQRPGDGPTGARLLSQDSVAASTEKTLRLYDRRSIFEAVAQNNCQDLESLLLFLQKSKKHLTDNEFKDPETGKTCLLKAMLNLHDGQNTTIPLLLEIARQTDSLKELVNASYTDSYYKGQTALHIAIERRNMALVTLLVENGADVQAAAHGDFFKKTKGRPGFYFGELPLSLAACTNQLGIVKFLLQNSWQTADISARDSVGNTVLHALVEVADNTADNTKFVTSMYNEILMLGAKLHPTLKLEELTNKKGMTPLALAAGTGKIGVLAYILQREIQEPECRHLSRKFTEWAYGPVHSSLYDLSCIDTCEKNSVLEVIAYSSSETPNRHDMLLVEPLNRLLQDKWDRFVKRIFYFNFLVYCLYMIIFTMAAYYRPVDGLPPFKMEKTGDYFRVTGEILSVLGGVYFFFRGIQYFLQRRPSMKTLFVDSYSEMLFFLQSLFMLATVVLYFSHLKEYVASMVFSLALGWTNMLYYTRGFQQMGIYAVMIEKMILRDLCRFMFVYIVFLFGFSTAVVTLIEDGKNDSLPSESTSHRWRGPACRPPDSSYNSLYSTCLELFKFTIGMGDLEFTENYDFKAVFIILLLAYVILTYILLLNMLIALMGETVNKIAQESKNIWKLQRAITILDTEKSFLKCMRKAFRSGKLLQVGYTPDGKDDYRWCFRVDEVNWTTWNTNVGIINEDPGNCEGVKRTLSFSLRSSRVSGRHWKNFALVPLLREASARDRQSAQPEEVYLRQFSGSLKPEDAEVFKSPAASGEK
Nature of the test: Functional test on human VR1, 45° C. stimulus. The class given is cell-based, human being. Set-up: key to IC50 (human being), 45° C.: agonist / partial agonist / no effect: AG=agonist; pAG=partial agonist; NE=no effect. To be noted: for IC50: read-out: IC50 (human being) [nM], 45° C.

Test [3] addresses T2, hVR1. Nature of the test: Functional test on hVR1 after pH stimulus. It counts as cell-based, human being. Set-up: key to IC50 (human being) hVR1, pH: agonist / partial agonist / no effect: AG=agonist; pAG=partial agonist; NE=no effect. To be noted: for IC50: includes value printed in brackets after pAG, read-out: IC50 (human being) hVR1 [nM], pH; for inhibition at 10 µM: read-out: IC50 (human being) hVR1, pH: inhibition (as a percentage).

Test [4] concerns the target T2, hVR1. Nature of the test: Functional test on VR1, FLIPR Ca2+ influx in transfected CHO K1 cells, capsaicin. It counts as cell-based, human being. Set-up: key to Ki (human being) [nM] Cap: agonist / partial agonist / no effect: AG=agonist; pAG=partial agonist; NE=no effect. As to conditions: for Ki: capsaicin (Cap), includes values given in brackets after pAG, read-out: Ki (human being) [nM] Cap.

Structures are written as SMILES.

As a reminder, the IC50 is the midpoint of a concentration-inhibition curve. As usually defined, the Ki is the dissociation constant of the complex between target and ligand, obtained from inhibition or displacement. The term inhibition denotes the change of the read-out against control, counted positive when it falls.

T1 sequence (O35433 whole entry): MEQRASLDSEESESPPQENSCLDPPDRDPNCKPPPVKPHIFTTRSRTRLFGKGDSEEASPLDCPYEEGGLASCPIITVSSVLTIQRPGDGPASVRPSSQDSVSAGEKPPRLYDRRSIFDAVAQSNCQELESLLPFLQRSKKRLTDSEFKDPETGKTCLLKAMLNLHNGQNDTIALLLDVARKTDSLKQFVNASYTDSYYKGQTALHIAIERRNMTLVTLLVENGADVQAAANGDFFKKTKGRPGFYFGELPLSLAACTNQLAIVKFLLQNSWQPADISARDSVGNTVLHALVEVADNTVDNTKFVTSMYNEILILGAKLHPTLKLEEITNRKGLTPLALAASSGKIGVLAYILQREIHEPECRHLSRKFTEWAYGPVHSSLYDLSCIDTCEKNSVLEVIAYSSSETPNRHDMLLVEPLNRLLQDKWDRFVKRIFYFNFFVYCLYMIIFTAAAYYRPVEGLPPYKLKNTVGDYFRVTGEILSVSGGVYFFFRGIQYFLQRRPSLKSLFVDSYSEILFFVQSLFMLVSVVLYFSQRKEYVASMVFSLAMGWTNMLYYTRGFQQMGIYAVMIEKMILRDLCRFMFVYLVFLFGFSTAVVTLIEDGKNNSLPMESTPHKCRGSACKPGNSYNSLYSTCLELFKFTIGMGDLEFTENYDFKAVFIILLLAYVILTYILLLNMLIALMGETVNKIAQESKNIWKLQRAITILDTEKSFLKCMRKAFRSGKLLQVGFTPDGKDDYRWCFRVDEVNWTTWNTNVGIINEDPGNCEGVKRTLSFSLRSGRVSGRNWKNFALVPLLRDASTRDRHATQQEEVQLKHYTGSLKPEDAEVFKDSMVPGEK

Regarding `CC(C(=O)NCc1cc(C(C)(C)C)nn1-c1cccc(Cl)c1)c1cccc2c1OCCO2` (stereo not drawn) [Example 14, N-((3-tert-butyl-1-(3-chlorophenyl)-1H-pyrazol-5-yl)methyl)-2-(2,3-dihydrobenzo[b][1,4]dioxin-5-yl)propanamide], the “Ki (rat) [nM] Cap: agonist / partial agonist / no effect” value in test [1] is on record as “AG”.

As for `CC(C(=O)NCc1cc(C(C)(C)C)nn1-c1cccc(Cl)c1)c1ccc2c(c1)OCCCO2` (stereo not drawn) [Example 15, N-((3-tert-butyl-1-(3-chlorophenyl)-1H-pyrazol-5-yl)methyl)-2-(3,4-dihydro-2H-benzo[b][1,4]dioxepin-7-yl)propanamide], at hVR1 [2], the “IC50 (human being), 45° C.: agonist / partial agonist / no effect” value is recorded as “pAG”. In addition, the “Ki (rat) [nM] Cap: agonist / partial agonist / no effect” value in test [1] was “AG”. Further, on hVR1 [3], the “IC50 (human being) hVR1, pH: agonist / partial agonist / no effect” value is “pAG” and the IC50 came to 412 nM. Moreover, on hVR1 [4], the “Ki (human being) [nM] Cap: agonist / partial agonist / no effect” value is listed as “pAG” and the Ki came to 25 nM.

With `CC(C(=O)NCc1cc(C(F)(F)F)nn1-c1cccc(Cl)c1)c1ccc2[nH]ccc2c1` (stereo not drawn) [Example 31, N-((1-(3-chlorophenyl)-3-(trifluoromethyl)-1H-pyrazol-5-yl)methyl)-2-(1H-indol-5-yl)propanamide], at hVR1 [3], the “IC50 (human being) hVR1, pH: agonist / partial agonist / no effect” value is on record as “pAG”. Besides, on hVR1 [4], the “Ki (human being) [nM] Cap: agonist / partial agonist / no effect” value is “pAG” and the Ki came out at 2.4 nM.

Regarding `CC(C(=O)NCc1cc(C(F)(F)F)nn1-c1cccc(Cl)c1)c1ccc2[nH]ncc2c1` (stereo not drawn) [Example 35, N-((1-(3-chlorophenyl)-3-(trifluoromethyl)-1H-pyrazol-5-yl)methyl)-2-(1H-indazol-5-yl)propanamide], the “IC50 (human being), 45° C.: agonist / partial agonist / no effect” value on hVR1 [2] is on record as “pAG”. In addition, at hVR1 [3], the “IC50 (human being) hVR1, pH: agonist / partial agonist / no effect” value is reported as “pAG”. Further, on hVR1 [4], the “Ki (human being) [nM] Cap: agonist / partial agonist / no effect” value was “pAG” and the Ki worked out at 0.3 nM.

With `CC(C(=O)NCc1cc(C(F)(F)F)nn1-c1cccc(Cl)c1)c1cccc2ccc(O)cc12` (stereo not drawn) [Example 58, N-((1-(3-chlorophenyl)-3-(trifluoromethyl)-1H-pyrazol-5-yl)methyl)-2-(7-hydroxynaphthalen-1-yl)propanamide], the inhibition at 2.5 µM on hVR1 [2] (@ 2.5 μM, read-out: IC50 (human being), 45° C.: inhibition (as a percentage)) is 41%. Besides, the Ki in test [1] amounted to 7.6 nM; at hVR1 [4] it was 0.7 nM. Also, the IC50 on hVR1 [3] was 4930 nM.

As to `CC(C(=O)NCc1cc(C(C)(C)C)nn1-c1cccc(Cl)c1)c1cccc2cnccc12` (stereo not drawn) [Example 63, N-((3-tert-butyl-1-(3-chlorophenyl)-1H-pyrazol-5-yl)methyl)-2-(isoquinolin-5-yl)propanamide], the inhibition at 0.6 µM at hVR1 [2] (@ 0.6 μM, read-out: IC50 (human being), 45° C.: inhibition (as a percentage)) worked out at 9%. Besides, the “Ki (rat) [nM] Cap: agonist / partial agonist / no effect” value in test [1] is given as “pAG”. The Ki in test [1] was found to be 0.5 nM; on hVR1 [4] it was 0.2 nM. The inhibition at 10 µM on hVR1 [3] amounted to 33%.

As to `Cc1cc2c(C(C)C(=O)NCc3cc(C(F)(F)F)nn3-c3cccc(Cl)c3)cccc2cn1` (stereo not drawn) [Example 65, N-((1-(3-chlorophenyl)-3-(trifluoromethyl)-1H-pyrazol-5-yl)methyl)-2-(3-methylisoquinolin-5-yl)propanamide], the IC50 on hVR1 [2] is 780 nM. Also, the inhibition at 10 µM at hVR1 [3] worked out at 23%. Moreover, on hVR1 [4], the Ki was 0.3 nM.

Consider `CC(C(=O)NCc1cc(C(C)(C)C)nn1-c1cccc(Cl)c1)c1cccc2ncccc12` (stereo not drawn) [Example 70, N-((3-tert-butyl-1-(3-chlorophenyl)-1H-pyrazol-5-yl)methyl)-2-(quinolin-5-yl)propanamide], for which the “IC50 (human being), 45° C.: agonist / partial agonist / no effect” value at hVR1 [2] is reported as “AG”. Moreover, the “IC50 (human being) hVR1, pH: agonist / partial agonist / no effect” value on hVR1 [3] was “AG”. The “Ki (human being) [nM] Cap: agonist / partial agonist / no effect” value at hVR1 [4] is reported as “AG”.

With `CC(C(=O)NCc1cc(C(C)(C)C)nn1-c1cccc(Cl)c1)c1ccc2nccnc2c1` (stereo not drawn) [Example 77, N-((3-tert-butyl-1-(3-chlorophenyl)-1H-pyrazol-5-yl)methyl)-2-(quinoxalin-6-yl)propanamide], the inhibition at 10 µM was -17% on hVR1 [2] (@ 10 μM, read-out: IC50 (human being), 45° C.: inhibition (as a percentage)) and 23% on hVR1 [3]. Besides, the Ki in test [1] was 34.2 nM; on hVR1 [4], 35.4 nM.

For the compound `O=C(NCc1cc(C(F)(F)F)nn1-c1cccc(Cl)c1)Nc1ccc2c(c1)OCCO2` [Example 84, 1-((1-(3-chlorophenyl)-3-(trifluoromethyl)-1H-pyrazol-5-yl)methyl)-3-(2,3-dihydrobenzo[b][1,4]dioxin-6-yl)urea], at hVR1 [2], the IC50 was determined as 235 nM. In addition, the Ki in test [1] worked out at 181 nM; on hVR1 [4], 51.6 nM.

With `O=C(NCc1cc(C(F)(F)F)nn1-c1cccc(Cl)c1)Nc1ccc2ncsc2c1` [Example 96, 1-(benzo[d]thiazol-6-yl)-3-((1-(3-chlorophenyl)-3-(trifluoromethyl)-1H-pyrazol-5-yl)methyl)urea], at hVR1 [3], the “IC50 (human being) hVR1, pH: agonist / partial agonist / no effect” value was “pAG”. Further, on hVR1 [4], the “Ki (human being) [nM] Cap: agonist / partial agonist / no effect” value was “pAG” and the Ki amounted to 7.3 nM.

For the origin of these results see patent publication US8334315B2, “Substituted aromatic carboxamide and urea derivatives as vanilloid receptor ligands” (Gruenenthal GmbH, priority 2009, dated 2012).
